Experimental data as given in patent publication US20220169639A1 (priority 2018, published 2022).
pIC50: −log10 of the molar value.

Experiments:
[1] = system: HBeAg (surrogate marker for cccDNA) in HepDES19 cells; test: Engineered HepDES19 primary screen assay (HBeAg ELISA); type: cell-based, HBV; conditions: Hepatitis B virus, 120 h, HBeAg in culture supernatant, 5 days incubation, read-out: IC50 (HepDES19 primary screen assay, inhibition of extracellular HBeAg level)
In short: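 HepDES19 cells pre-induced by Tet withdrawal for 8 days, frozen, then seeded and dosed after 24 h with half-log compound dilutions (1% DMSO final). After 5 days at 37 °C, HBeAg measured by ELISA and viability by CCK-8; IC50 from 4-parameter logistic fit.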

[2] = system: HBV (HBsAg) in HBV-infected PHH; test: Cryopreserved primary human hepatocytes (PHH) HBV infection assay, extracellular HBsAg (CLIA); type: cell-based; conditions: Hepatitis B virus, Hepatocyte, 216 h, read-out: HBsAg IC50
Procedure: This assay is used to confirm the anti-HBV effect of the compounds in HBV PHH infection assay. Cryopreserved PHH (BioreclamationIVT, Lot YJM) was thawed at 37° C. and gently transferred into pre-warmed InVitroGRO HT medium (BioreclamationIVT, Cat. S03317). The mixture was centrifuged at 70 relative centrifugal force (RCF) for 3 minutes at RT, and the supernatant was discarded. Pre-warmed InVitroGRO CP medium (BioreclamationIVT, Cat #S03316) was added to the cell pellet to gently re-suspend cells. The cells were seeded at the density of 5.8×10^4 cells per well to collagen I coated 96-well plate (Gibco, Cat. A1142803) with the InVitroGRO CP medium. All plates were incubated at 37° C. with 5% CO2 and 85% humidity.
At 20 hours after plating, the medium was changed to PHH culture medium (Dulbecco's Modified Eagle Medium (DMEM)/F12 (1:1) (Gibco, Cat. 11320-033), 10% fetal bovine serum (Gibco Cat. 10099141), 100 U/mL penicillin, 100 μg/mL streptomycin (Gibco, Cat. 151401-122), 5 ng/mL human epidermal growth factor (Invitrogen Cat. PHG0311L), 20 ng/mL dexamethasone (Sigma, Cat. D4902) and 250 ng/mL human recombinant insulin (Gibco, Cat. 12585-014)). And the cells were incubated at 37° C. with 5% CO2 and 85% humidity for 4 hours. The medium was then changed to pre-warmed PHH culture medium containing 4% polyethylene glycol (PEG) MW8000 (Sigma, Cat. P1458-50ML) and 1% DMSO (Sigma, Cat. D2650). 5.8×10^6 genomic equivalents of HBV were added into the medium.
At 24 hours post-infection, the cells were gently washed with PBS and refreshed with PHH culture medium supplemented with 1% DMSO, and 0.25 mg/mL Matrix gel (Corning, Cat. 356237) at 200 μL per well. All plates were immediately placed in at 37° C. CO2 incubator. 24 hours later, serial dilutions of compounds made with DMSO were further diluted with the same culture medium (PHH culture medium supplemented with 1% DMSO and 0.25 mg/mL Matrix gel as described above) before they were added to the cells to reach desired final compound concentrations and 1% DMSO concentration. The medium containing the compounds were refreshed every three days.
At 9 days post-compound treatment, extracellular HBsAg level were measured with Chemiluminescence Immuno Assay (CLIA) kit (Autobio, HBsAg Quantitative CLIA). Extracellular HBV DNA was extracted by MagNA Pure 96 system (Roche) and then determined
HBsAg IC50 and HBV DNA IC50 values were derived from the dose-response curve using 4 parameter logistic curve fit method. The compounds of formula (I) have HBsAg IC50<20 μM, particularly <1 μM; and HBV DNA IC50<50 μM. Results of Cryopreserved PHH assay are given in TableBIO2.

NC(=O)NCCCOc1cc(C(F)(F)F)ccc1-c1cc(=O)c2cccc(Cl)c2o1 [Example 157, 3-[2-(8-chloro-4-oxo-chromen-2-yl)-5-(trifluoromethyl)phenoxy]propylurea]
pIC50 [1]: 5.38 | pIC50 [2]: 5.47

NS(=O)(=O)NCCCOc1cc(C(F)(F)F)ccc1-c1cc(=O)c2cccc(Cl)c2o1 [Example 160, 8-chloro-4-oxo-2-[2-[3-(sulfamoylamino)propoxy]-4-(trifluoromethyl)phenyl]chromene]
pIC50 [1]: 5.61 | pIC50 [2]: 5.00

O=C1CCCN1CCOc1cc(Br)ccc1-c1cc(=O)c2cccc(Cl)c2o1 [Example 075, 1-[2-[5-bromo-2-(8-chloro-4-oxo-chromen-2-yl)phenoxy]ethyl]pyrrolidin-2-one]
pIC50 [1]: 6.96 | pIC50 [2]: 5.45

CS(=O)(=O)C1CCN(CCCOc2cc(C(F)(F)F)ccc2-c2cc(=O)c3cccc(Cl)c3o2)C1 (stereo not shown) [Example 088, 8-chloro-2-[2-[3-(3-methylsulfonylpyrrolidin-1-yl)propoxy]-4-(trifluoromethyl)phenyl]chromen-4-one]
pIC50 [1]: 6.57 | pIC50 [2]: 5.11

COc1cc(-c2cc(=O)c3cccc(Cl)c3o2)c(OCCCN2CC[C@H](C(=O)O)C2)cc1Br [Example 017, (3S)-1-[3-[5-bromo-2-(8-chloro-4-oxo-chromen-2-yl)-4-methoxy-phenoxy]propyl]pyrrolidine-3-carboxylic acid]
pIC50 [1]: 6.47 | pIC50 [2]: 5.47

O=C(O)C1CCN(CCOc2cc(Br)ccc2-c2cc(=O)c3cccc(Cl)c3o2)CC1 [Example 022, 1-[2-[5-bromo-2-(8-chloro-4-oxo-chromen-2-yl)phenoxy]ethyl]piperidine-4-carboxylic acid]
pIC50 [1]: 5.88 | pIC50 [2]: 5.17

O=C(O)C(=O)NCCCOc1cc(C(F)(F)F)ccc1-c1cc(=O)c2cccc(Cl)c2o1 [Example 117]
pIC50 [1]: 5.67 | pIC50 [2]: 5.72

CS(=O)(=O)NC(=O)[C@@H]1CCN(CCOc2cc(Br)ccc2-c2cc(=O)c3cccc(Cl)c3o2)C1 [Example 064, (3R)-1-[2-[5-bromo-2-(8-chloro-4-oxo-chromen-2-yl)phenoxy]ethyl]-N-methylsulfonyl-pyrrolidine-3-carboxamide]
pIC50 [1]: 7.10 | pIC50 [2]: 5.19

O=C(O)C1CCCN1CCOc1cc(Br)ccc1-c1cc(=O)c2cccc(Cl)c2o1 (stereo not shown) [Example 020, 1-[2-[5-bromo-2-(8-chloro-4-oxo-chromen-2-yl)phenoxy]ethyl]pyrrolidine-2-carboxylic acid]
pIC50 [1]: 6.06 | pIC50 [2]: 5.08

C[S+]([O-])C1CCN(CCOc2cc(C(F)(F)F)ccc2-c2cc(=O)c3cccc(Cl)c3o2)CC1 (stereo not shown) [Example 093, 8-chloro-2-[2-[2-(4-methylsulfinyl-1-piperidyl)ethoxy]-4-(trifluoromethyl)phenyl]chromen-4-one]
pIC50 [1]: 5.22 | pIC50 [2]: 5.21

O=C(O)C1CC2CCC(C1)N2CCOc1cc(Br)ccc1-c1cc(=O)c2cccc(Cl)c2o1 (stereo not shown) [Example 025, 8-[2-[5-bromo-2-(8-chloro-4-oxo-chromen-2-yl)phenoxy]ethyl]-8-azabicyclo[3.2.1]octane-3-carboxylic acid]
pIC50 [1]: 6.10 | pIC50 [2]: 5.12

CS(=O)(=O)NC(=O)[C@H]1CCN(CCCOc2cc(C(F)(F)F)ccc2-c2cc(=O)c3cccc(Cl)c3o2)C1 [Example 066, (3S)-1-[3-[2-(8-chloro-4-oxo-chromen-2-yl)-5-(trifluoromethyl)phenoxy]propyl]-N-methylsulfonyl-pyrrolidine-3-carboxamide]
pIC50 [1]: 5.55 | pIC50 [2]: 5.04

O=C(O)[C@@H]1CCN(CC(O)COc2cc(Br)ccc2-c2cc(=O)c3cccc(Cl)c3o2)C1 (stereo partly drawn) [Example 165, (3R)-1-[3-[5-bromo-2-(8-chloro-4-oxo-chromen-2-yl)phenoxy]-2-hydroxy-propyl]pyrrolidine-3-carboxylic acid]
pIC50 [1]: 5.50 | pIC50 [2]: 5.00

CN(C1CCN(CCOc2cc(Br)ccc2-c2cc(=O)c3cccc(Cl)c3o2)C1)S(C)(=O)=O (stereo not shown) [Example 076, N-[1-[2-[5-bromo-2-(8-chloro-4-oxo-chromen-2-yl)phenoxy]ethyl]pyrrolidin-3-yl]-N-methyl-methanesulfonamide]
pIC50 [1]: 5.79 | pIC50 [2]: 5.10

O=C(O)[C@@H]1CCN(CCCOc2cc(C(F)(F)F)ccc2-c2cc(=O)c3cccc(Cl)c3o2)C1 [Example 013, (3R)-1-[3-[2-(8-chloro-4-oxo-chromen-2-yl)-5-(trifluoromethyl)phenoxy]propyl]pyrrolidine-3-carboxylic acid]
pIC50 [1]: 5.37 | pIC50 [2]: 5.13

CCOc1ccc(-c2cc(=O)c3cccc(Cl)c3o2)c(OCCCN2CC[C@H](C(=O)O)C2)c1 [Example 015, (3S)-1-[3-[2-(8-chloro-4-oxo-chromen-2-yl)-5-ethoxy-phenoxy]propyl]pyrrolidine-3-carboxylic acid]
pIC50 [1]: 5.11 | pIC50 [2]: 5.01

O=C(O)C1CN(CCCOc2cc(C(F)(F)F)ccc2-c2cc(=O)c3cccc(Cl)c3o2)CCO1 (stereo not shown) [Example 018, 4-[3-[2-(8-chloro-4-oxo-chromen-2-yl)-5-(trifluoromethyl)phenoxy]propyl]morpholine-2-carboxylic acid]
pIC50 [1]: 6.39 | pIC50 [2]: 5.29

CCOC(=O)C(=O)NCCOc1cc(C(F)(F)F)ccc1-c1cc(=O)c2cccc(Cl)c2o1 [Example 101, ethyl 2-[2-[2-(8-chloro-4-oxo-chromen-2-yl)-5-(trifluoromethyl)phenoxy]ethylamino]-2-oxo-acetate]
pIC50 [1]: 5.97 | pIC50 [2]: 5.85

O=C(O)C1CN(CCOCCOc2cc(Br)ccc2-c2cc(=O)c3cccc(Cl)c3o2)CCO1 (stereo not shown) [Example 049, 4-[2-[2-[5-bromo-2-(8-chloro-4-oxo-chromen-2-yl)phenoxy]ethoxy]ethyl]morpholine-2-carboxylic acid]
pIC50 [1]: 5.55 | pIC50 [2]: 5.11

CC(=O)NCCCOc1cc(C(F)(F)F)ccc1-c1cc(=O)c2cccc(Cl)c2o1 [Example 098]
pIC50 [1]: 5.36 | pIC50 [2]: 5.20

O=C(O)C1CC(N2CCC(Oc3cc(Br)ccc3-c3cc(=O)c4cccc(Cl)c4o3)CC2)C1 (stereo not shown) [Example 131]
pIC50 [1]: 5.23 | pIC50 [2]: 5.30

CS(=O)(=O)NC(=O)C1CCCN1CCOc1cc(C(F)(F)F)ccc1-c1cc(=O)c2cccc(Cl)c2o1 (stereo not shown) [Example 073, 1-[2-[2-(8-chloro-4-oxo-chromen-2-yl)-5-(trifluoromethyl)phenoxy]ethyl]-N-methylsulfonyl-pyrrolidine-2-carboxamide]
pIC50 [1]: 6.85 | pIC50 [2]: 5.13

COc1cc(-c2cc(=O)c3cccc(Cl)c3o2)c(OCCCN2CC[C@@H](C(=O)O)C2)cc1Br [Example 016, (3R)-1-[3-[5-bromo-2-(8-chloro-4-oxo-chromen-2-yl)-4-methoxy-phenoxy]propyl]pyrrolidine-3-carboxylic acid]
pIC50 [1]: 6.05 | pIC50 [2]: 5.12

O=C(O)[C@H]1CCN(CCCOc2cc(C(F)(F)F)ccc2-c2cc(=O)c3cccc(Cl)c3o2)C1 [Example 014, (3S)-1-[3-[2-(8-chloro-4-oxo-chromen-2-yl)-5-(trifluoromethyl)phenoxy]propyl]pyrrolidine-3-carboxylic acid]
pIC50 [1]: 6.43 | pIC50 [2]: 5.29

O=C(O)C1COCCN1CCOc1cc(Br)ccc1-c1cc(=O)c2cccc(Cl)c2o1 (stereo not shown) [Example 052, 4-[2-[5-bromo-2-(8-chloro-4-oxo-chromen-2-yl)phenoxy]ethyl]morpholine-3-carboxylic acid]
pIC50 [1]: 7.10 | pIC50 [2]: 5.24

O=c1cc(-c2ccc(Br)cc2OCCN2CCC(c3nnn[nH]3)CC2)oc2c(Cl)cccc12 [Example 087]
pIC50 [1]: 5.28 | pIC50 [2]: 5.11
